Source: patent publication US7820623B2 (priority 2006, dated 2010)
Read-outs that look alike come from different tables or passages of the source. Bridge positions count the residues as written; N and C are the ends. Square brackets hold non-standard residues; d marks the D form. Peptide text beside a SMILES is read from it. 1Nal = N[C@@H](Cc1cccc2ccccc12)C(=O)O

What was measured:
[1] = system: thapsigargin-induced IL-2 production in human whole blood
[2] = system: thapsigargin-induced IFN-g production in human whole blood; format: cell-based
[3] = read-out: Analogue Activity (IC50) WB/IL-2
[4] = read-out: Analogue Activity (IC50) WB/IFNg

| Compound | IC50 [1, 3] [nM] | IC50 [2, 4] [nM] | IC50 ([1]; read-out: WB/IL-2 (IC50)) [nM] | IC50 ([2]; read-out: WB/IFNg (IC50)) [nM] | further results |
| --- | --- | --- | --- | --- | --- |
| CC[C@H](C)[C@@H]1NC(=O)[C@H](CCCCN)NC(=O)[C@@H](NC(=O)[C@H](CCCCN)NC(=O)[C@@H](NC(=O)[C@H](CC(N)=O)NC(=O)[C@@H](NC(=O)[C@@H](NC(=O)[C@H](Cc2cccc3ccccc23)NC(=O)CN)[C@@H](C)CC)[C@@H](C)CC)C(C)C)CSSC[C@@H]2NC(=O)[C@H](CCCCN)NC(=O)CNC(=O)[C@H](Cc3ccccc3)NC(=O)[C@H](CCCNC(=N)N)NC(=O)[C@H](CCSC)NC(=O)CNC(=O)[C@H](C)NC(=O)[C@H](CCCCN)NC(=O)[C@H](CCCCN)NC(=O)[C@@H]3CSSC[C@@H](C(=O)N[C@H](C(=O)N4CCC[C@H]4C(=O)N[C@@H](CCCCN)C(=O)O)[C@@H](C)O)NC(=O)[C@H](Cc4c[nH]cn4)NC(=O)[C@H](CSSC[C@H](NC(=O)[C@H](CCC(N)=O)NC(=O)[C@H](CCCNC(=N)N)NC(=O)[C@H](CO)NC1=O)C(=O)N[C@@H](CC(C)C)C(=O)N[C@@H](CCC(=O)O)C(=O)N1CCC[C@H]1C(=O)N3)NC(=O)[C@H](CCCCN)NC(=O)CNC(=O)[C@H](CC(N)=O)NC(=O)[C@H](CCSC)NC2=O [V2Nal] (H-G[1Nal]IINVKCKISRQCLEPCKKAGMRFGKCMNGKCHCTPK-OH; disulfide 8-28, 14-33, 18-35) | 0.75 | 0.524 |  |  |  |
| CC[C@H](C)[C@@H]1NC(=O)[C@H](CCCCN)NC(=O)[C@@H](NC(=O)[C@H](CCCCN)NC(=O)[C@@H](NC(=O)[C@H](CC(N)=O)NC(=O)[C@@H](NC(=O)[C@@H](NC(=O)[C@H](CCCNC(=N)N)NC(=O)CN)[C@@H](C)CC)[C@@H](C)CC)C(C)C)CSSC[C@@H]2NC(=O)[C@H](CCCCN)NC(=O)CNC(=O)[C@H](Cc3ccccc3)NC(=O)[C@H](CCCNC(=N)N)NC(=O)[C@H](CCSC)NC(=O)CNC(=O)[C@H](C)NC(=O)[C@H](CCCCN)NC(=O)[C@H](CCCCN)NC(=O)[C@@H]3CSSC[C@@H](C(=O)N[C@H](C(=O)N4CCC[C@H]4C(=O)N[C@@H](CCCCN)C(=O)O)[C@@H](C)O)NC(=O)[C@H](Cc4c[nH]cn4)NC(=O)[C@H](CSSC[C@H](NC(=O)[C@H](CCC(N)=O)NC(=O)[C@H](CCCNC(=N)N)NC(=O)[C@H](CO)NC1=O)C(=O)N[C@@H](CC(C)C)C(=O)N[C@@H](CCC(=O)O)C(=O)N1CCC[C@H]1C(=O)N3)NC(=O)[C@H](CCCCN)NC(=O)CNC(=O)[C@H](CC(N)=O)NC(=O)[C@H](CCSC)NC2=O [V2R] (H-GRIINVKCKISRQCLEPCKKAGMRFGKCMNGKCHCTPK-OH; disulfide 8-28, 14-33, 18-35) | 0.775 | 0.986 |  |  |  |
| CC[C@H](C)[C@@H]1NC(=O)[C@H](CCCCN)NC(=O)[C@@H](NC(=O)[C@H](CCCCN)NC(=O)[C@H](C)NC(=O)[C@H](CC(N)=O)NC(=O)[C@@H](NC(=O)[C@@H](NC(=O)[C@@H](NC(=O)CN)C(C)C)[C@@H](C)CC)[C@@H](C)CC)CSSC[C@@H]2NC(=O)[C@H](CCCCN)NC(=O)CNC(=O)[C@H](Cc3ccccc3)NC(=O)[C@H](CCCNC(=N)N)NC(=O)[C@H](CCSC)NC(=O)CNC(=O)[C@H](C)NC(=O)[C@H](CCCCN)NC(=O)[C@H](CCCCN)NC(=O)[C@@H]3CSSC[C@@H](C(=O)N[C@H](C(=O)N4CCC[C@H]4C(=O)N[C@@H](CCCCN)C(=O)O)[C@@H](C)O)NC(=O)[C@H](Cc4c[nH]cn4)NC(=O)[C@H](CSSC[C@H](NC(=O)[C@H](CCC(N)=O)NC(=O)[C@H](CCCNC(=N)N)NC(=O)[C@H](CO)NC1=O)C(=O)N[C@@H](CC(C)C)C(=O)N[C@@H](CCC(=O)O)C(=O)N1CCC[C@H]1C(=O)N3)NC(=O)[C@H](CCCCN)NC(=O)CNC(=O)[C@H](CC(N)=O)NC(=O)[C@H](CCSC)NC2=O [V6A] (H-GVIINAKCKISRQCLEPCKKAGMRFGKCMNGKCHCTPK-OH; disulfide 8-28, 14-33, 18-35) | 0.0733 | 0.0805 |  |  |  |
| CC[C@H](C)[C@@H]1NC(=O)[C@H](CCCCN)NC(=O)[C@@H](NC(=O)[C@H](CCCCN)NC(=O)[C@H](CCC(=O)O)NC(=O)[C@H](CC(N)=O)NC(=O)[C@@H](NC(=O)[C@@H](NC(=O)[C@@H](NC(=O)CN)C(C)C)[C@@H](C)CC)[C@@H](C)CC)CSSC[C@@H]2NC(=O)[C@H](CCCCN)NC(=O)CNC(=O)[C@H](Cc3ccccc3)NC(=O)[C@H](CCCNC(=N)N)NC(=O)[C@H](CCSC)NC(=O)CNC(=O)[C@H](C)NC(=O)[C@H](CCCCN)NC(=O)[C@H](CCCCN)NC(=O)[C@@H]3CSSC[C@@H](C(=O)N[C@H](C(=O)N4CCC[C@H]4C(=O)N[C@@H](CCCCN)C(=O)O)[C@@H](C)O)NC(=O)[C@H](Cc4c[nH]cn4)NC(=O)[C@H](CSSC[C@H](NC(=O)[C@H](CCC(N)=O)NC(=O)[C@H](CCCNC(=N)N)NC(=O)[C@H](CO)NC1=O)C(=O)N[C@@H](CC(C)C)C(=O)N[C@@H](CCC(=O)O)C(=O)N1CCC[C@H]1C(=O)N3)NC(=O)[C@H](CCCCN)NC(=O)CNC(=O)[C@H](CC(N)=O)NC(=O)[C@H](CCSC)NC2=O [V6E] (H-GVIINEKCKISRQCLEPCKKAGMRFGKCMNGKCHCTPK-OH; disulfide 8-28, 14-33, 18-35) | 0.048 | 0.068 |  |  |  |
| CC[C@H](C)[C@@H]1NC(=O)[C@H](CCCCN)NC(=O)[C@@H](NC(=O)[C@H](CCCCN)NC(=O)[C@H](Cc2cccc3ccccc23)NC(=O)[C@H](CC(N)=O)NC(=O)[C@@H](NC(=O)[C@@H](NC(=O)[C@@H](NC(=O)CN)C(C)C)[C@@H](C)CC)[C@@H](C)CC)CSSC[C@@H]2NC(=O)[C@H](CCCCN)NC(=O)CNC(=O)[C@H](Cc3ccccc3)NC(=O)[C@H](CCCNC(=N)N)NC(=O)[C@H](CCSC)NC(=O)CNC(=O)[C@H](C)NC(=O)[C@H](CCCCN)NC(=O)[C@H](CCCCN)NC(=O)[C@@H]3CSSC[C@@H](C(=O)N[C@H](C(=O)N4CCC[C@H]4C(=O)N[C@@H](CCCCN)C(=O)O)[C@@H](C)O)NC(=O)[C@H](Cc4c[nH]cn4)NC(=O)[C@H](CSSC[C@H](NC(=O)[C@H](CCC(N)=O)NC(=O)[C@H](CCCNC(=N)N)NC(=O)[C@H](CO)NC1=O)C(=O)N[C@@H](CC(C)C)C(=O)N[C@@H](CCC(=O)O)C(=O)N1CCC[C@H]1C(=O)N3)NC(=O)[C@H](CCCCN)NC(=O)CNC(=O)[C@H](CC(N)=O)NC(=O)[C@H](CCSC)NC2=O [V6Nal] (H-GVIIN[1Nal]KCKISRQCLEPCKKAGMRFGKCMNGKCHCTPK-OH; disulfide 8-28, 14-33, 18-35) | 1.78 | 2.46 |  |  |  |
| CC[C@H](C)[C@@H]1NC(=O)[C@H](CCCCN)NC(=O)[C@@H](NC(=O)[C@H](CCCCN)NC(=O)[C@H](CCCNC(=N)N)NC(=O)[C@H](CC(N)=O)NC(=O)[C@@H](NC(=O)[C@@H](NC(=O)[C@@H](NC(=O)CN)C(C)C)[C@@H](C)CC)[C@@H](C)CC)CSSC[C@@H]2NC(=O)[C@H](CCCCN)NC(=O)CNC(=O)[C@H](Cc3ccccc3)NC(=O)[C@H](CCCNC(=N)N)NC(=O)[C@H](CCSC)NC(=O)CNC(=O)[C@H](C)NC(=O)[C@H](CCCCN)NC(=O)[C@H](CCCCN)NC(=O)[C@@H]3CSSC[C@@H](C(=O)N[C@H](C(=O)N4CCC[C@H]4C(=O)N[C@@H](CCCCN)C(=O)O)[C@@H](C)O)NC(=O)[C@H](Cc4c[nH]cn4)NC(=O)[C@H](CSSC[C@H](NC(=O)[C@H](CCC(N)=O)NC(=O)[C@H](CCCNC(=N)N)NC(=O)[C@H](CO)NC1=O)C(=O)N[C@@H](CC(C)C)C(=O)N[C@@H](CCC(=O)O)C(=O)N1CCC[C@H]1C(=O)N3)NC(=O)[C@H](CCCCN)NC(=O)CNC(=O)[C@H](CC(N)=O)NC(=O)[C@H](CCSC)NC2=O [V6R] (H-GVIINRKCKISRQCLEPCKKAGMRFGKCMNGKCHCTPK-OH; disulfide 8-28, 14-33, 18-35) | 0.084 | 0.115 |  |  |  |
| AVIINVKCKISRQCLEPCKKAGMRFGKCMNGKCHCTPK [Ala-1 (SEQ ID No: 1400)] |  |  |  |  | IC50 ([1]; read-out: Average IC50 IL-2): 0.122 nM; IC50 ([2]; read-out: Average IC50 IFNg): 0.119 nM |
| E16K, K20D (GVIINVKCKISRQCLKPCKDAGMRFGKCMNGKCHCTPK; Definition of Artificial Sequence: Synthetic peptide) |  |  | 1.58 | 1.32 |  |
| E16K, K20D, H34A (GVIINVKCKISRQCLKPCKDAGMRFGKCMNGKCACTPK) |  |  | 65.5 | 26.6 |  |
| E16K, K20D, T36Y (GVIINVKCKISRQCLKPCKDAGMRFGKCMNGKCHCYPK; Definition of Artificial Sequence: Synthetic peptide) |  |  | 0.639 | 0.923 |  |
| E16K, K20D, des36-38 (GVIINVKCKISRQCLKPCKDAGMRFGKCMNGKCHC) |  |  | 3.94 | 6.99 |  |
| GAIINVKCKISRQCLEPCKKAGMRFGKCMNGKCHCTPK [Ala-2 (SEQ ID No: 1401)] |  |  |  |  | IC50 ([1]; read-out: Average IC50 IL-2): 0.0884 nM; IC50 ([2]; read-out: Average IC50 IFNg): 0.103 nM |
